Test results reported in paper PMC10566475, “A cell-active cyclic peptide targeting the Nrf2/Keap1 protein–protein interaction” (Chemical Science, 2023).
Like-named read-outs stand apart in the source and are kept apart here. *1 amine or outer side, *2 acyl side, *3 side chain or, on linkers, in order; H or OH if unused. Where a SMILES comes first, the peptide text is derived from it. Bridges are numbered along the chain shown (N, C = ends). X1 = CN(CC(=O)O)c1nc(CC[*:1])cc(CC[*:2])n1; mXylylene = c1cc(C[*:1])cc(C[*:2])c1; CH2COCH2 = O=C(C[*:1])C[*:2]; CH2 = C([*:1])[*:2]

What was measured:
[1] = molecular target: T1, human Keap1 Kelch domain (A321-T609) (Homo sapiens, UniProt Q14145); assay: Surface plasmon resonance (SPR) direct binding assay, immobilised Keap1 Kelch domain
T1 construct: human Keap1 Kelch domain (A321-T609) fused with N-terminal 6x His-tag; 6xHis (N); made in house
Description: (§1) We based the design of our Nrf2-like cyclic peptides around the amino acid sequence of the ETGE motif (namely 12-mer ^73[…]^84L) and SAR studies reported in the literature.[9,10,12,14] The […] motif is known to adopt a beta-turn conformation upon binding to Keap1. Residues Q73-Q75 and L85 stabilise the bound conformation, L76-D77 and E79-G81 bind deep into the pocket with E79 and E82 forming electrostatic interactions with Keap1 and D77 and T80 stabilising the beta-turn via H-bonds with E78 not contributing to the binding. […] The ability of the cyclic peptides to bind to the Kelch domain of Keap1 was evaluated using surface plasma resonance (SPR), where the Kelch domain is immobilised onto a SPR sensor chip. Additionally, we assessed the ability of the peptides to inhibit the PPI between Nrf2 and the Kelch domain of Keap1 using a time-resolved FRET (TR-FRET) assay. Here, the IC50 for inhibition of the interaction between the human Keap1 Kelch domain and an Nrf2-ETGE peptide is measured.
(§2) Surface Plasmon Resonance (SPR)
(§3) Peptide affinities to the Kelch domain of Keap1 is determined in a direct binding assay using 8K surface plasmon resonance (SPR) biosensor (Cytiva) at 20°C. Immobilization of Keap1 Kelch domain on a CM5 sensor chip (Cytiva) is performed using standard amine coupling procedure. The surface is washed with 10mM NaOH, 1M NaCl before activated with EDC/NHS (Cytiva), followed by immobilization of human Keap1 Kelch domain (A321-T609) fused with N-terminal 6x His-tag7 (in 10 mM MES, pH=6.4).
(§4) Finally, the surface is deactivated by Ethanolamine. Immobilization levels are typically 5000-6000 RU.
(§5) The reference spot is treated as described, omitting the injection of Keap1. Compound concentration series are injected over the immobilized protein in increasing concentrations using single cycle kinetics (SCK) in running buffer (10 mM HEPES, 150 mM NaCl, 0.05% Tween20, 1 mM TCEP, pH 7.4). A 1:1 Langmuir interaction model is fitted to the experimental traces, enabling determination of kon, koff and […]
(§6) In the time-resolved Förster resonance energy transfer (TR-FRET) assay8 the IC50 of inhibitors which […]
(§7) are determined. The TR-FRET is measured between a Tb-labelled mAb (Anti—6-His, Tb cryptate Gold, CisBio 61H12TLB) that binds to Keap 1 Kelch domain and d2-labelled SA-biotin-peptide.
(§8) The assay was performed in 384-well white low-volume, medium binding plates (Greiner Bio One, Austria) in 20 mM HEPES pH 7.5, 150 mM NaCl, 2 mM GSH (Sigma-Aldrich, USA),1mM EDTA (Sigma-Aldrich, USA), and 0.01% Pluronic F127 (MilliporeSigma, USA), with a final reaction volume of 10 µL.
(§9) To determine the ability of synthesized peptide to inhibit PPI between the Keap1 Kelch domain and Nrf2, 1nM purified human Keap1 Kelch domain (A321-T609) fused with N-terminal 6x His-tag, 5 nM biotinylated Nrf2 peptide ([…], Genescript, USA), d2-labeled streptavidin (Revvity, USA), and […] anti-His monoclonal antibody tagged with terbium cryptate (Revvity, USA), were incubated in the presence of varying concentrations of investigated peptides for 3 h at room […]
(§10) 7 Li X, Zhang D, Hannink M, Beamer LJ. Crystallization and initial crystallographic analysis of the Kelch domain from human Keap1. Acta
(§11) 8 S. Lee, D. Ali Abed, L. J. Beamer, L. Hu, Development of a Homogeneous Time-Resolved Fluorescence Resonance Energy Transfer (TR-

[2] = molecular target: T2, interaction between the human Keap1 Kelch domain and an Nrf2-ETGE peptide (Homo sapiens, UniProt Q14145); assay: Keap1-Nrf2 TR-FRET (HTRF) assay; assay type: binding
T2 construct: 1nM purified human Keap1 Kelch domain (A321-T609) fused with N-terminal 6x His-tag; made in house
Description: as §1, §2, §3, §4, §5, §6, §7, §8, §9, §10, §11
Following the incubation, the PHERAstar FSX […] microplate reader was used to measure the acceptor and donor emissions at 665 nm and 620 nm, respectively. The acceptor/donor ratio was used to calculate relative energy transfer. Data was normalized by two-point normalization using neutral and inhibitor controls (neutral control: DMSO, inhibitor control: 0.1nM 2-[[4-[carboxymethyl-(4-methoxyphenyl)sulfonylamino]naphthale n-1-yl]-(4-methoxyphenyl)sulfonylamino]acetic acid; […]
parameter logistic fit and IC50 values were calculated using Genedata screener software (Genedata, […]

[3] = Table 1, geometric mean ± sd of at least 3 independent repeats unless stated, 20°C
[4] = Table 1, single cycle kinetics, 1:1 Langmuir model
[5] = Table 1, geometric mean ± sd of at least 3 independent repeats unless stated, read-out: TR-FRET IC50

T2 sequence (Q14145 321-609): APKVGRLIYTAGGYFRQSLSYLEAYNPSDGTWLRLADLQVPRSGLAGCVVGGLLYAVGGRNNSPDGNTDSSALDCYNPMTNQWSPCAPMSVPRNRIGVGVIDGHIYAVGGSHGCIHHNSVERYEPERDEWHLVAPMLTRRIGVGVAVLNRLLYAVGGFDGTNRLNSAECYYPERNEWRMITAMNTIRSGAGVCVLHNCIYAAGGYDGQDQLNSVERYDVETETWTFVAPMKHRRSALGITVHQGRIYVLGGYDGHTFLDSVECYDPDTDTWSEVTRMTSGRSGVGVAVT
T1 sequence (Q14145 321-609): as above

Compound | Kd [1, 3] [nM] | koff [1, 4] [s⁻¹] | kon [1, 4] [M⁻¹ s⁻¹] | IC50 [2, 5] [nM] | koff ([1]; Table 2) [s⁻¹] | kon ([1]; Table 2) [M⁻¹ s⁻¹] | Kd ([1]; Table 2, geometric mean ± sd of at least two independent repeats) [nM] | IC50 ([2]; Table 2, IC50, minimum of three repeats, read-out: TR-FRET) [nM]
CC(=O)N[C@@H](CC(C)C)C(=O)N[C@@H](CCC(N)=O)C(=O)N[C@H]1CSCCc2cc(nc(N(C)CC(=O)O)n2)CCSC[C@@H](C(=O)N[C@@H](CC(C)C)C(N)=O)NC(=O)[C@H](CCC(=O)O)NC(=O)CNC(=O)[C@H]([C@@H](C)O)NC(=O)[C@H](CCC(=O)O)NC(=O)[C@@H]2CCCN2C(=O)[C@H](CC(=O)O)NC1=O [Peptide P2-D] (Ac-LQCDPETGECL-NH2; linker 3-10 via X1) | 54 ± 1.2 | 0.0083 | 160000 | 4.8 ± 1.5 |  |  |  | 
CC(=O)N[C@@H](CC(C)C)C(=O)N[C@@H](CCC(N)=O)C(=O)N[C@@H](CS)C(=O)N[C@@H](CC(=O)O)C(=O)N1CCC[C@H]1C(=O)N[C@@H](CCC(=O)O)C(=O)N[C@H](C(=O)NCC(=O)N[C@@H](CCC(=O)O)C(=O)N[C@@H](CS)C(=O)N[C@@H](CC(C)C)C(N)=O)[C@@H](C)O [Peptide P2] (Ac-LQCDPETGECL-NH2) | 75 |  |  |  |  |  |  | 
CC(=O)N[C@@H](CS)C(=O)N[C@@H](CC(=O)O)C(=O)N1CCC[C@H]1C(=O)N[C@@H](CCC(=O)O)C(=O)N[C@H](C(=O)NCC(=O)N[C@@H](CCC(=O)O)C(=O)N[C@@H](CS)C(=O)N[C@@H](CC(C)C)C(N)=O)[C@@H](C)O [Peptide P8] |  |  |  |  | 0.0055 | 95000 | 56 ± 1.3 | 4.9 ± 1.2
CC(=O)N[C@H]1CSCCc2cc(nc(N(C)CC(=O)O)n2)CCSC[C@@H](C(=O)N[C@@H](CC(C)C)C(N)=O)NC(=O)[C@H](CCC(=O)O)NC(=O)CNC(=O)[C@H]([C@@H](C)O)NC(=O)[C@H](CCC(=O)O)NC(=O)[C@@H]2CCCN2C(=O)[C@H](CC(=O)O)NC(=O)[C@H](CC(C)C)NC(=O)[C@H](CCC(N)=O)NC1=O [Peptide P1-D] (Ac-CQLDPETGECL-NH2; linker 1-10 via X1) | 25 ± 1.3 | 0.0047 | 200000 | 2.9 ± 1.4 |  |  |  | 
CC(=O)N[C@@H](CS)C(=O)N[C@@H](CCC(N)=O)C(=O)N[C@@H](CC(C)C)C(=O)N[C@@H](CC(=O)O)C(=O)N1CCC[C@H]1C(=O)N[C@@H](CCC(=O)O)C(=O)N[C@H](C(=O)NCC(=O)N[C@@H](CCC(=O)O)C(=O)N[C@@H](CS)C(=O)N[C@@H](CC(C)C)C(N)=O)[C@@H](C)O [Peptide P1] (Ac-CQLDPETGECL-NH2) | 20 ± 1.2 | 0.0014 | 86000 | 4.9 ± 1.1 |  |  |  | 
CC(=O)N[C@H]1Cn2cc(nn2)-c2cc(C(=O)O)cc(c2)-c2cn(nn2)C[C@@H](C(=O)N[C@@H](CC(C)C)C(N)=O)NC(=O)[C@H](CCC(=O)O)NC(=O)CNC(=O)[C@H]([C@@H](C)O)NC(=O)[C@H](CCC(=O)O)NC(=O)[C@@H]2CCCN2C(=O)[C@H](CC(=O)O)NC(=O)[C@H](CC(C)C)NC(=O)[C@H](CCC(N)=O)NC(=O)[C@H](CC(C)C)NC1=O [Peptide P3Aza-E] | 34 ± 1.3 | 0.0054 | 170000 | 4 ± 1.4 |  |  |  | 
CC(=O)N[C@H]1CSCCc2cc(nc(N(C)CC(=O)O)n2)CCSC[C@@H](C(=O)N[C@@H](CC(C)C)C(N)=O)NC(=O)[C@H](CCC(=O)O)NC(=O)CNC(=O)[C@H]([C@@H](C)O)NC(=O)[C@H](CCC(=O)O)NC(=O)[C@@H]2CCCN2C(=O)[C@H](CC(=O)O)NC(=O)[C@H](CC(C)C)NC(=O)[C@H](CCC(N)=O)NC(=O)[C@H](CC(C)C)NC1=O [Peptide P3-D] (Ac-CLQLDPETGECL-NH2; linker 1-11 via X1) | 22 ± 1.3 | 0.0028 | 140000 | 2.4 ± 1.3 |  |  |  | 
CC(=O)N[C@@H](CS)C(=O)N[C@@H](CC(C)C)C(=O)N[C@@H](CCC(N)=O)C(=O)N[C@@H](CC(C)C)C(=O)N[C@@H](CC(=O)O)C(=O)N1CCC[C@H]1C(=O)N[C@@H](CCC(=O)O)C(=O)N[C@H](C(=O)NCC(=O)N[C@@H](CCC(=O)O)C(=O)N[C@@H](CS)C(=O)N[C@@H](CC(C)C)C(N)=O)[C@@H](C)O [Peptide P3] (Ac-CLQLDPETGECL-NH2) | 19 ± 1.8 | 0.0049 | 180000 | 5 ± 1.5 |  |  |  | 
CC(=O)N[C@H]1CSCc2cccc(c2)CSC[C@@H](C(=O)N[C@@H](CC(C)C)C(N)=O)NC(=O)[C@H](CCC(=O)O)NC(=O)CNC(=O)[C@H]([C@@H](C)O)NC(=O)[C@H](CCC(=O)O)NC(=O)[C@@H]2CCCN2C(=O)[C@H](CC(=O)O)NC(=O)[C@H](CC(C)C)NC(=O)[C@H](CCC(N)=O)NC1=O [Peptide P1-C] (Ac-CQLDPETGECL-NH2; linker 1-10 via mXylylene) | 17 ± 1.2 | 0.0078 | 470000 | 2.1 |  |  |  | 
CC(=O)N[C@@H](CC(C)C)C(=O)N[C@@H](CCC(N)=O)C(=O)N[C@H]1CSCSC[C@@H](C(=O)N[C@@H](CC(C)C)C(N)=O)NC(=O)[C@H](CCC(=O)O)NC(=O)CNC(=O)[C@H]([C@@H](C)O)NC(=O)[C@H](CCC(=O)O)NC(=O)[C@@H]2CCCN2C(=O)[C@H](CC(=O)O)NC1=O [Peptide P2-A] (Ac-LQCDPETGECL-NH2; linker 3-10 via CH2) | 70 ± 1 | 0.015 | 210000 | 8.3 ± 1.1 |  |  |  | 
CC(=O)N[C@@H](CC(C)C)C(=O)N[C@@H](CCC(N)=O)C(=O)N[C@H]1CSCC(=O)CSC[C@@H](C(=O)N[C@@H](CC(C)C)C(N)=O)NC(=O)[C@H](CCC(=O)O)NC(=O)CNC(=O)[C@H]([C@@H](C)O)NC(=O)[C@H](CCC(=O)O)NC(=O)[C@@H]2CCCN2C(=O)[C@H](CC(=O)O)NC1=O [Peptide P2-B] (Ac-LQCDPETGECL-NH2; linker 3-10 via CH2COCH2) | 97 ± 1.4 | 0.028 | 350000 | 9.8 ± 1.2 |  |  |  | 
CC(=O)N[C@@H](CC(C)C)C(=O)N[C@@H](CCC(N)=O)C(=O)N[C@H]1CSCc2cccc(c2)CSC[C@@H](C(=O)N[C@@H](CC(C)C)C(N)=O)NC(=O)[C@H](CCC(=O)O)NC(=O)CNC(=O)[C@H]([C@@H](C)O)NC(=O)[C@H](CCC(=O)O)NC(=O)[C@@H]2CCCN2C(=O)[C@H](CC(=O)O)NC1=O [Peptide P2-C] (Ac-LQCDPETGECL-NH2; linker 3-10 via mXylylene) | 36 ± 1.8 | 0.013 | 500000 | 5.6 ± 1.1 |  |  |  | 
